Results as given in the supplement of paper PMC10307832.

Legend:
Assay in all cases: relative viability (nuclei count vs DMSO), 5 days (fraction); higher = more cells survive
[1] = compound: C/C(=N\NC(=S)N1CCC1)/C2=CC=CC=N2 + CC(C)C[C@H](NC(=O)[C@H](Cc1ccccc1)NC(=O)c1cnccn1)B(O)O [Bortezomib] (partner 0.002 µM)
Outline: (§1)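 Relative viability divides the nuclei count in treated wells by that in vehicle wells. Lung cancer cell lines were seeded in 1536-well plates, dosed by pin tool the next day, and fixed and stained after 5 days in one step with final 0.05% Triton X-100, 1% formaldehyde and 1 ug/ml Hoechst. Dosing was a single drug or a fixed anchor-drug dose plus five library-drug doses (not always all listed) in √10 steps, and values are medians of duplicate plates imaged at 4×.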

[2] = compound: C/C(=N\NC(=S)N1CCC1)/C2=CC=CC=N2 + CS(=O)(=O)CCNCc1ccc(-c2ccc3ncnc(Nc4ccc(OCc5cccc(F)c5)c(Cl)c4)c3c2)o1 [Lapatinib] (partner 2 µM)
Outline: as §1

[3] = compound: C/C(=N\NC(=S)N1CCC1)/C2=CC=CC=N2 + NC(=O)Nc1cc(-c2cccc(F)c2)sc1C(=O)N[C@H]1CCCNC1 [AZD7762] (partner 0.2 µM)
Outline: as §1

[4] = compound: C/C(=N\NC(=S)N1CCC1)/C2=CC=CC=N2 + Nc1ncn([C@H]2C[C@H](O)[C@@H](CO)O2)c(=O)n1 [Decitabine] (partner 2 µM)
Outline: as §1

Cell Line | relative viability ([1]; first compound 0.05 µM) | relative viability ([1]; first compound 0.1581 µM) | relative viability ([1]; first compound 0.5 µM) | relative viability ([1]; first compound 1.581 µM) | relative viability ([1]; first compound 5 µM) | relative viability ([2]; first compound 0.05 µM) | relative viability ([2]; first compound 0.1581 µM) | relative viability ([2]; first compound 0.5 µM) | relative viability ([2]; first compound 1.581 µM) | relative viability ([2]; first compound 5 µM) | relative viability ([3]; first compound 0.05 µM) | relative viability ([3]; first compound 0.1581 µM) | relative viability ([3]; first compound 0.5 µM) | relative viability ([3]; first compound 1.581 µM) | relative viability ([3]; first compound 5 µM) | relative viability ([4]; first compound 0.05 µM) | relative viability ([4]; first compound 0.1581 µM) | relative viability ([4]; first compound 0.5 µM) | relative viability ([4]; first compound 1.581 µM) | relative viability ([4]; first compound 5 µM)
LXF-289 | 0.314 | 0.216 | 0.255 | 0.203 | 0.121 | 0.322 | 0.278 | 0.275 | 0.24 | 0.14 | 0.212 | 0.266 | 0.218 | 0.124 | 0.116 | 0.274 | 0.356 | 0.198 | 0.236 | 0.158
NCI-H23 | 0.108 | 0.148 | 0.171 | 0.105 | 0.136 | 0.169 | 0.168 | 0.171 | 0.151 | 0.166 | 0.0952 | 0.131 | 0.124 | 0.096 | 0.131 | 0.178 | 0.2 | 0.161 | 0.172 | 0.202
NCI-H322M | 0.176 | 0.295 | 0.296 | 0.287 | 0.324 | 0.258 | 0.281 | 0.222 | 0.243 | 0.301 | 0.316 | 0.333 | 0.381 | 0.37 | 0.414 | 0.353 | 0.413 | 0.418 | 0.47 | 0.455
NCI-H460 | 0.0169 | 0.0164 | 0.0256 | 0.0129 | 0.0105 | 0.0117 | 0.0152 | 0.017 | 0.015 | 0.0086 | 0.0608 | 0.0607 | 0.0479 | 0.0377 | 0.0347 | 0.0547 | 0.04 | 0.0328 | 0.0221 | 0.0138
NCI-H596 | 0.518 | 0.309 | 0.237 | 0.233 | 0.276 | 0.339 | 0.293 | 0.221 | 0.228 | 0.299 | 0.331 | 0.321 | 0.312 | 0.244 | 0.297 | 0.887 | 0.408 | 0.335 | 0.317 | 0.418
NCI-H647 | 0.165 | 0.105 | 0.0582 | 0.072 | 0.0851 | 0.139 | 0.0972 | 0.11 | 0.0821 | 0.0828 | 0.0396 | 0.0606 | 0.048 | 0.0361 | 0.0379 | 0.0887 | 0.123 | 0.117 | 0.0803 | 0.0922
NCI-H650 | 0.181 | 0.238 | 0.199 | 0.134 | 0.196 | 0.174 | 0.294 | 0.23 | 0.168 | 0.203 | 0.225 | 0.209 | 0.199 | 0.223 | 0.143 | 0.169 | 0.192 | 0.187 | 0.186 | 0.157
